Structures are written as SMILES. Read-outs that look alike come from different tables or passages of the source.

The record followed here is US20180141913A1 (EISAI R & D MANAGEMENT CO., LTD., priority 2016, published 2018).

The subject of experiment [1] is MCF7-Y537S cells (MCF7 ER-alpha Y537S mutant). Description: In vitro proliferation (viability) assay, MCF7-Y537S cells. The experiment is classed as cell-based. The note with it: Homo sapiens. How it is done:
(§1) MCF7 BUS cells (Coser, et al., (2003) PNAS 100(24): 13994-13999) were maintained in Dulbecco's Modified Eagle Medium supplemented with 10% FBS, 4 mM L-glutamine and 1× non-essential amino acids. Lenti-X 293T cells (Clontech, Cat #632180) were routinely cultured in Dulbecco's Modified Eagle Medium supplemented with 10% FBS.
(§2) The QuikChange II XL Site-Directed Mutagenesis Kit (Agilent Technologies, Cat #200523) was used to generate Y537S, Y537C, Y537N and D538G mutations within the ERα exon 8. Wild-type ESR1 cDNA (GeneCopoeia Inc., Cat# GC-A0322, accession no. NM 000125) was used as a template with the following mutagenesis primers (where the underlined nucleotides represent site mutations); Y537S: F-AAGAACGTGGTGCCCCTCTCTGACCTGCTGCTGGAGATG (SEQ ID NO: 1), R-CATCTCCAGCAGCAGGTCAGAGAGGGGCACCACGTTCTT (SEQ ID NO: 2); Y537N: F-AAGAACGTGGTGCCCCTCAATGACCTGCTGCTGGAGATG (SEQ ID NO: 3), R-CATCTCCAGCAGCAGGTCATTGAGGGGCACCACGTTCTT (SEQ ID NO: 4); Y537C: F-AAGAACGTGGTGCCCCTCTGTGACCTGCTGCTGGAGATG (SEQ ID NO: 5), R-CATCTCCAGCAGCAGGTCACAGAGGGGCACCACGTTCTT (SEQ ID NO: 6); D538G: F-AACGTGGTGCCCCTCTATGGCCTGCTGCTGGAGATGCTG (SEQ ID NO: 7), R-CAGCATCTCCAGCAGCAGGCCATAGAGGGGCACCACGTT (SEQ ID NO: 8). WT and mutant ESR1 cDNAs were cloned into the designation lentiviral vector pLenti6.3/V5-Dest (Invitrogen, Cat #V533-06). To make lentivirus, DNAs (WT and mutant ESR1) were co-transfected with packaging plasmids into Lenti-X 293T cells using TransIT (Mirus, Cat #MIR 2700). 48 h post-transfection, virus containing media was filtered and added to MCF7 cells in the presence of 8 µg/ml polybrene overnight. Two days following infection, cells were placed under selection with 10 µg/ml blasticidin for 2 weeks for stable expression.
(§3) MCF7-WT and -Y537S cells were seeded at 1500 cells/well in black-walled 96-well plates (assay plates, Costar, Cat #3904). In parallel, cells were also seeded in a separate 96-well plate (8 wells/cell line, control plate) for which a CTG (CellTiter-Glo® Luminescent Viability Assay, Promega, Cat #G7572) was measured the following day (day 0 reading). The day 0 reading was used for the GI50 calculation at the termination of the experiment. The day following seeding, compounds were added to assay plates. Briefly, a 1:4 serial dilution was prepared in DMSO at 200× final concentration for a total of 10 concentrations (9 dilutions containing compound and one is DMSO only). Serially diluted compounds were pipetted into medium to prepare a compound-medium mix at 10× final concentration. 10 μl of compound-medium mix was added to MCF7-WT and -Y537S cells at 3 wells/concentration (triplicate for each concentration). On day 3, media/compound was removed and replaced with fresh media/compound as described above. On day 6, CTG was measured and compared to day 0 readings from control plate to assess GI50.

Experiment [2] relates to MCF7-WT cells (MCF7 ER-alpha wildtype). The experiment in a line: In vitro proliferation (viability) assay, MCF7-WT cells. It counts as cell-based. The conditions noted are these: Homo sapiens. How it is done: as §1, §2, §3
The mark [3] stands for this setting: MCF7, CellTiter-Glo, day 6 vs day 0, average ± standard deviation, free base and/or salt forms, read-out: MCF7 Y537S GI50.
The mark [4] stands for this setting: MCF7, CellTiter-Glo, day 6 vs day 0, average ± standard deviation, free base and/or salt forms, read-out: MCF7 WT GI50.
[5] abbreviates: MCF7, read-out: MCF7 Y537S GI50 (nM).
[6] abbreviates: MCF7, read-out: MCF7 WT GI50 (nM).

Turning to `CN(C)C(=O)CCCNCCOc1ccc(/C(=C(/CC(F)(F)F)c2ccccc2)c2ccc3[nH]nc(F)c3c2)cc1` [Compound 1, (E)-N,N-dimethyl-4-((2-(4-(4,4,4-trifluoro-1-(3-fluoro-1H-indazol-5-yl)-2-phenylbut-1-en-1-yl)phenoxy)ethyl)amino)butanamide], the results for the GI50 in experiment [1] (setting [3]) and in experiment [2] (setting [4]) were 3.79 ± 1.92 nM and 0.36 ± 0.16 nM, respectively.
On to `CC/C(=C(/c1ccc(OCCNCCCC(=O)N(C)C)cc1)c1ccc2[nH]ncc2c1)c1ccccc1` [Compound 4, (E)-4-(2-(4-(1-(1H-indazol-5-yl)-2-phenylbut-1-enyl)phenoxy)ethylamino)-N,N-dimethylbutanamide], for which the GI50 (as a rule, the concentration that inhibits growth by half) was determined as 46.4 ± 23.2 nM in experiment [1] (setting [3]) and 4.09 ± 2.74 nM in experiment [2] (setting [4]).
For `CNC(=O)/C=C/CNCCOc1ccc(/C(CC(F)(F)F)=C(\c2ccccc2)c2ccc3[nH]nc(F)c3c2)cn1` [Compound 5, (E)-N-methyl-4-((2-((5-((E)-4,4,4-trifluoro-1-(3-fluoro-1H-indazol-5-yl)-1-phenylbut-1-en-2-yl)pyridin-2-yl)oxy)ethyl)amino)but-2-enamide], in that order: 180 ± 227 nM and 88.5 ± 42.7 nM.
For `CNC(=O)/C=C/CCNCCOc1ccc(/C(=C(/CC(F)(F)F)c2ccccc2)c2ccc3[nH]nc(F)c3c2)cn1` [Compound 6, (E)-N-methyl-5-((2-((5-((Z)-4,4,4-trifluoro-1-(3-fluoro-1H-indazol-5-yl)-2-phenylbut-1-en-1-yl)pyridin-2-yl)oxy)ethyl)amino)pent-2-enamide], in that order: 5.5 ± 0.47 nM and 0.38 nM.
For `CNC(=O)CCCCNCCOc1ccc(/C(=C(/CC(F)(F)F)c2ccccc2)c2ccc3[nH]nc(F)c3c2)cn1` [Compound 8, (Z)-N-methyl-5-((2-((5-(4,4,4-trifluoro-1-(3-fluoro-1H-indazol-5-yl)-2-phenylbut-1-en-1-yl)pyridin-2-yl)oxy)ethyl)amino)pentanamide], in that order: 14.7 ± 0.55 nM and 0.7 ± 0.27 nM.
For the compound `CNC(=O)/C=C/CNCCOc1ccc(/C(=C(\c2ccccc2)C2CCC2)c2ccc3[nH]ncc3c2)cc1` [Compound 11, (E)-4-((2-(4-((E)-2-cyclobutyl-1-(1H-indazol-5-yl)-2-phenylvinyl)phenoxy)ethyl)amino)-N-methylbut-2-enamide], the figures for the GI50 in experiment [1] (setting [3]) and in experiment [2] (setting [4]) were 32.7 ± 22.2 nM and 2.08 ± 1.55 nM, respectively.
For the compound `O=C1CCCN1CCOc1ccc(/C(=C(/CC(F)(F)F)c2ccccc2)c2ccc3[nH]nc(F)c3c2)cn1` [Compound 12, (Z)-1-(2-((5-(4,4,4-trifluoro-1-(3-fluoro-1H-indazol-5-yl)-2-phenylbut-1-en-1-yl)pyridin-2-yl)oxy)ethyl)pyrrolidin-2-one], the GI50 came out at 24 nM in experiment [1] (setting [3]) and 1.45 nM in experiment [2] (setting [4]).
For `O=C(/C=C/CNCCOc1ccc(/C(=C(/CC(F)(F)F)c2ccccc2)c2ccc3[nH]ncc3c2)cc1)N1CCCC1` [Compound 14, (E)-1-(pyrrolidin-1-yl)-4-((2-(4-((E)-4,4,4-trifluoro-1-(1H-indazol-5-yl)-2-phenylbut-1-en-1-yl)phenoxy)ethyl)amino)but-2-en-1-one], in that order: 7.65 ± 3.38 nM and 1.73 ± 0.14 nM.
As to `O=C(/C=C/CNCCOc1ccc(/C(=C(/CC(F)(F)F)c2ccccc2)c2ccc3[nH]nc(F)c3c2)cn1)N1CCOCC1` [Compound 18, (E)-1-morpholino-4-(2-(5-((Z)-4,4,4-trifluoro-1-(3-fluoro-1H-indazol-5-yl)-2-phenylbut-1-enyl)pyridin-2-yloxy)ethylamino)but-2-en-1-one], the values for the GI50 in experiment [1] (setting [3]) and in experiment [2] (setting [4]) were 4.91 ± 0.65 nM and 0.72 ± 0.24 nM, respectively.
On to `O=C(/C=C/CNCCOc1ccc(/C(=C(/CC(F)(F)F)c2ccccc2)c2ccc3[nH]ncc3c2)cn1)N1CCOCC1` [Compound 19, (E)-1-morpholino-4-((2-((5-((Z)-4,4,4-trifluoro-1-(1H-indazol-5-yl)-2-phenylbut-1-en-yl)pyridin-2-yl)oxy)ethyl)amino)but-2-en-1-one], for which the GI50 was determined as 3.15 ± 0.01 nM in experiment [1] (setting [3]) and 0.66 ± 0.05 nM in experiment [2] (setting [4]).
For `COCCNC(=O)/C=C/CNCCOc1ccc(/C(=C(/CC(F)(F)F)c2ccccc2)c2ccc3[nH]nc(F)c3c2)cn1` [Compound 20, (E)-N-(2-methoxyethyl)-4-((2-((5-((Z)-4,4,4-trifluoro-1-(3-fluoro-1H-indazol-5-yl)-2-phenylbut-1-en-1-yl)pyridin-2-yl)oxy)ethyl)amino)but-2-enamide], in that order: 6.08 ± 2.69 nM and 0.66 ± 0.13 nM.
Regarding `Cl.[2H]C([2H])([2H])N(C(=O)/C=C/CNCCOc1ccc(/C(=C(/CC(F)(F)F)c2ccccc2)c2ccc3[nH]nc(F)c3c2)cn1)C([2H])([2H])[2H]` [Compound 24, (E)-N,N-di(^2H3)methyl-4-((2-((5-((Z)-4,4,4-trifluoro-1-(3-fluoro-1H-indazol-5-yl)-2-phenylbut-1-en-1-yl)pyridin-2-yl)oxy)ethyl)amino)but-2-enamide], the values for the GI50 in experiment [1] (setting [5]) and in experiment [2] (setting [6]) were 3.34 ± 1.14 nM and 0.45 ± 0.11 nM, respectively.
In the case of `Cl.[2H]C([2H])([2H])N(C(=O)/C=C/CNCCOc1ccc(/C(=C(/CC(F)(F)F)c2ccccc2)c2ccc3[nH]ncc3c2)cn1)C([2H])([2H])[2H]` [Compound 25, (E)-N,N-di(H3)methyl-4-((2-((5-((Z)-4,4,4-trifluoro-1-(1H-indazol-5-yl)-2-phenylbut-1-en-1-yl)pyridin-2-yl)oxy)ethyl)amino)but-2-enamide], the figures for the GI50 in experiment [1] (setting [3]) and in experiment [2] (setting [4]) were 1.58 ± 0.23 nM and 0.38 ± 0.16 nM, respectively.
With `CC/C(=C(/c1ccc(OCCNC/C=C/C(=O)NC)nc1)c1ccc2[nH]ncc2c1)c1ccccc1` [Compound 28, (E)-4-((2-((5-((Z)-1-(1H-indazol-5-yl)-2-phenylbut-1-en-1-yl)pyridin-2-yl)oxy)ethyl)amino)-N-methylbut-2-enamide], the values for the GI50 in experiment [1] (setting [3]) and in experiment [2] (setting [4]) were 9.08 ± 5.26 nM and 4.12 ± 1.6 nM, respectively.
For `O=C(/C=C/CNCCOc1ccc(/C(=C(\c2ccccc2)C2CCC2)c2ccc3[nH]ncc3c2)cc1)N1CCCC1` [Compound 35], in that order: 27.3 ± 19.9 nM and 3.06 ± 0.25 nM.
For `O=C(CCCNCCOc1ccc(/C(=C(/CC(F)(F)F)c2ccccc2)c2ccc3[nH]nc(F)c3c2)cc1)N1CCCC1` [Compound 41, (E)-1-(pyrrolidin-1-yl)-4-((2-(4-(4,4,4-trifluoro-1-(3-fluoro-1H-indazol-5-yl)-2-phenylbut-1-en-1-yl)phenoxy)ethyl)amino)butan-1-one], in that order: 9.38 ± 7.61 nM and 0.24 ± 0.04 nM.
With `O=C(CCCNCCOc1ccc(/C(=C(/CC(F)(F)F)c2ccccc2)c2ccc3[nH]nc(F)c3c2)cn1)N1CCCC1` [Compound 43], the GI50 is 3.21 nM in experiment [1] (setting [5]) and 0.15 nM in experiment [2] (setting [6]).
Take `CNC(=O)/C=C/CNCCOc1ncc(/C(=C(/CC(F)(F)F)c2ccccc2)c2ccc3[nH]nc(F)c3c2)cn1` [Compound 45, (E)-N-methyl-4-((2-((5-((Z)-4,4,4,4-trifluoro-1-(3-fluoro-1H-indazol-5-yl)-2-phenylbut-1-en-1-yl)pyrimidin-2-yl)oxy)ethyl)amino)but-2-enamide]: the concentration for 50% growth inhibition (GI50) in experiment [1] (setting [3]) came to 71 ± 8.63 nM; in experiment [2] (setting [4]) it was 23.2 ± 9.42 nM.
Regarding `CNC(=O)/C=C/CNCCOc1ccc(/C(=C(/CC(F)(F)F)c2ccc(F)cc2Cl)c2ccc3[nH]ncc3c2)cc1` [Compound 46, (E)-4-((2-(4-((E)-2-(2-chloro-4-fluorophenyl)-4,4,4-trifluoro-1-(1H-indazol-5-yl)but-1-en-1-yl)phenoxy)ethyl)amino)-N-methylbut-2-enamide], the GI50 is 13.8 ± 5.1 nM in experiment [1] (setting [3]) and 1.38 ± 0.44 nM in experiment [2] (setting [4]).
